Assay results published in PMC9271048, “Probing strigolactone perception mechanisms with rationally designed small-molecule agonists stimulating germination of root parasitic weeds” (Nature Communications, 2022).
Where two headings read alike, the source gives them in different places.

Experiments:
P. aegyptiaca seeds = assay: P. aegyptiaca seed germination assay; type: in vivo, Phelipanche aegyptiaca; design: P. aegyptiaca germination EC50 values, source data average: unit not given here; P. aegyptiaca seed germination activity, source data average: unit of the concentration uncertain; conditions: for P. aegyptiaca germination(%): Supplementary Table 1, compounds tested at 10 μM, means ± SD, n = 3; for P. aegyptiaca seed germination activity, source data average: Supplementary Fig. 9b
Procedure: P. aegyptiaca seeds were harvested from Xinjiang province, China in 2017. The seeds were surface sterilized using 1% NaClO solution for 2 min and then washed with distilled water six times. For seed germination assay, about 20 pieces of glass fiber-filter paper discs (15 mm diameter, Whatman GF/B) were placed separately on two layers of filter papers (9 cm diameter, Whatman) in a Petri dish. Five milliliters of distilled water was added to each Petri dish to wet the papers. Approximately 40–90 sterilized seeds were spread onto each glass fiber-filter paper disc. After the seeds were conditioned in the dark at 25 °C for 4 days[48], glass fiber-filter paper discs were blotted dry on filter papers (9 cm) and transferred to the wells of 24-well cell culture plates. The testing compounds were dissolved in acetone and diluted with H2O (VH2O/Vacetone = 999/1) just before use[49]. rac-GR24 and 1‰ acetone solution were used as positive and negative controls, respectively. One hundred microliters of the test solution was added to each well of the plates, and all treatments were performed in three biological repeats. The plates were sealed and incubated in the dark at 25 °C for a week. The experiments were performed at least three times. The germinated seeds were observed by using an electronic magnifier at ×20 magnification.

ShHTL7 [1] = target: T1, ShHTL7 (Striga hermonthica, UniProt A0A0M3PNA2); assay: Competitive inhibition of ShHTL7 with Yoshimulactone Green (YLG) as substrate; type: biochemical
T1 sequence (A0A0M3PNA2 entry or part of it): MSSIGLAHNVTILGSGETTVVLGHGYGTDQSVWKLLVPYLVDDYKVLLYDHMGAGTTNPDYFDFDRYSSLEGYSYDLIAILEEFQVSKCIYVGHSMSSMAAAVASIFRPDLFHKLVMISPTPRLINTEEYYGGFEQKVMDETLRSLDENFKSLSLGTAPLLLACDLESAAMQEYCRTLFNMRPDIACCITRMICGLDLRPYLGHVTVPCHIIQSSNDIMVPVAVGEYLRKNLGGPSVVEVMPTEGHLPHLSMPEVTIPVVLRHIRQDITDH
Procedure: Based on the structural feature of the lead compound 2h, we selected three regions to perform further modification (Supplementary Fig. 6), to try to further improve bioactivity. Insertion of a carbonyl group between the bicyclo[2.2.1]hept-5-en-2-yl group and the piperazine ring was detrimental to binding affinity (Supplementary Fig. 6, region A). Removal of an oxygen atom in region B was found unfavorable to binding affinity as well. Therefore, we focused on modifying the benzene ring (region C) for 2h. A series of compounds with different groups at region C was synthesized (Supplementary Scheme 1). […] As SPR just measures the binding ability, another independent assay by using Yoshimulactone Green (YLG) as the fluorescent substrate was performed to determine the half-maximal inhibitory concentration (IC50) of these compounds against ShHTL7[22].
The excitation and emission wavelengths of YLG are 480 and 520 nm, respectively. We used a fluorescence spectrophotometer (CARY Eclipse) to detect the fluorescence intensity change of YLG during the enzymatic hydrolysis assay process. All the testing compounds and YLG were dissolved in DMSO and prepared as stock solutions just before use. […] The changes of fluorescence at 520 nm of each well were recorded every 1 min for 30 min. Using the reaction mixture without adding enzyme and tested compounds as the background control. After subtracting the background hydrolysis, a linear fluorescence increase in 8 min was used for further inspection. The IC50 values were determined via fitting relative inhibition percentages with the varying concentrations of compounds in Microsoft Excel.

ShHTL7 [2] = target: T1, ShHTL7; assay: biochemical; type: binding
Procedure: We used a sensitive, high-throughput Surface plasmon resonance (SPR) method to examine the binding affinities of the 51 candidates to the recombinant ShHTL7 protein, which was immobilized on the CM5 sensor chip. rac-GR24 was used as a positive control.
The interactions of small molecules with recombinant ShHTL7 were evaluated using the Biacore T200 system (GE Healthcare, USA) at 25 °C[47]. The purified ShHTL7 protein was immobilized on a CM5 sensor chip using the standard amine coupling procedure. […] PBS-P (10 mM phosphate buffer, 2.7 mM KCl, 137 mM NaCl, 0.05% Surfactant P20) containing 0.5% DMSO was used as the running buffer. For the screening experiments, candidates with different structures at 50 μM in the running buffer were injected individually at a flow rate of 30 μL min^−1. For binding affinity studies, compounds with different concentrations in running buffer were used. During the experiments, both the contact and dissociation times were set as 1 min. Data analysis was performed using the Biacore Evaluation Software (T200 Version 2.0). The affinity values (KD) were obtained by the kinetics analysis or the steady-state affinity method.

[3] = source data of Fig. 2c and Supplementary Fig. 8b, average of 3
[4] = YLG as substrate, text and Fig. 2, read-out: IC50, competitive ShHTL7 inhibition (YLG assay)
[5] = wild-type ShHTL7, average of 3, source data of Fig. 2a,b, Supplementary Figs. 8a, 9a, 20b, read-out: IC50, competitive ShHTL7 inhibition (YLG), source data average
[6] = Supplementary Table 7, binding affinities between ShHTL7 and agonists by SPR, read-out: KD/μM
[7] = IC50 (Supplementary Table 1), YLG used as the substrate, means ± SD, n = 3
[8] = IC50, competitive ShHTL7 inhibition (YLG), source data average, wild-type ShHTL7, average of 3, source data of Fig. 2a,b, Supplementary Figs. 8a, 9a, 20b
[9] = YLG used as the substrate, means ± SD, n = 3, read-out: IC50 (Supplementary Table 1)
[10] = recombinant ShHTL7 immobilized on CM5 chip, 25 °C, read-out: KD (SPR)

For CC1=CC(OC(=O)N2CCN(CC3CC4C=CC3C4)CC2)OC1=O (stereo not drawn) [4c], the EC50 (P. aegyptiaca seeds; in vivo, read-out: EC50, P. aegyptiaca seed germination) was 0.00226 µM, the “P. aegyptiaca germination EC50 values, source data average” value (“P. aegyptiaca germination EC50 values” below) (P. aegyptiaca seeds; [3]) was 8.757 and the IC50 (ShHTL7 [1]; [4]) was 4.56 ± 0.78 µM. It also gave an IC50 (ShHTL7 [1]; [5]) of 4.56 µM and a Kd (ShHTL7 [2]; [6]) of 13.9 ± 2.6 µM.

With O=C(COc1c(F)c(F)c(F)c(F)c1F)N1CCN(CC2CC3C=CC2C3)CC1 (stereo not drawn) [3g] the “P. aegyptiaca germination(%)” value (P. aegyptiaca seeds) was 5.7%, the IC50 (ShHTL7 [1]; [7]) was 0.23 ± 0.03 µM and the IC50 (ShHTL7 [1]; [8]) was 2.08 µM. For the same compound, the Kd (ShHTL7 [2]) was 0.47 µM.

With COc1cc(C(=O)N2CCN(CC3CC4C=CC3C4)CC2)cc(OC)c1OC (stereo not drawn) [2c] the Kd (ShHTL7 [2]) was 6.66 ± 0.2 µM.

Cc1cc(Br)ccc1OCC(=O)N1CCN(CC2CC3C=CC2C3)CC1 (stereo not drawn) [3f] was tested, and the “P. aegyptiaca germination(%)” value (P. aegyptiaca seeds) was 8.3%, the IC50 (ShHTL7 [1]; [7]) was 7.45 ± 1.03 µM and the IC50 (ShHTL7 [1]; [8]) was 6.11 µM. The Kd (ShHTL7 [2]) was 0.18 µM.

CCCCOc1ccc(S(=O)(=O)N2CCN(C(=O)OC3C=C(C)C(=O)N3C)CC2)cc1 (stereo not drawn) [4j] was tested, and the “P. aegyptiaca seed germination activity, source data average” value (shortened to “P. aegyptiaca seed germination activity”) (P. aegyptiaca seeds; 0.1 (unit uncertain) as printed) was 4.315%, the “P. aegyptiaca seed germination activity” value (P. aegyptiaca seeds; 1 (unit uncertain) as printed) was 14.0733% and the “P. aegyptiaca seed germination activity” value (P. aegyptiaca seeds; 10 (unit uncertain) as printed) was 45.7326%. The IC50 (ShHTL7 [1]; [5]) was 105 µM and the Kd (ShHTL7 [2]; [6]) was 18.1 ± 6.29 µM.

With O=C(COc1ccc(Cl)cc1)N1CCN(CC2CC3C=CC2C3)CC1 (stereo not drawn) [3o] the “P. aegyptiaca germination(%)” value (P. aegyptiaca seeds) was 21.4% and the IC50 (ShHTL7 [1]; [9]) was 22 ± 2.43 µM.

In the case of CC1=CC(OC(=O)N2CCN(C(=O)COc3c(F)c(F)c(F)c(F)c3F)CC2)OC1=O (stereo not drawn) [4b], the EC50 (P. aegyptiaca seeds; Phelipanche aegyptiaca, read-out: EC50, P. aegyptiaca seed germination) is reported as about 0.0552 µM, the EC50 (P. aegyptiaca seeds; Phelipanche aegyptiaca, source data of Fig. 2c and Supplementary Fig. 8b, average of 3, read-out: P. aegyptiaca germination EC50 values, source data average (converted)) is reported as 0.0482 µM and the IC50 (ShHTL7 [1]; [4]) is reported as 3.03 ± 0.58 µM. It also gave an IC50 (ShHTL7 [1]; [5]) of 3.03 µM and a Kd (ShHTL7 [2]) of 2.21 ± 0.42 µM.

With O=C(COc1ccc([N+](=O)[O-])cc1)N1CCN(CC2CC3C=CC2C3)CC1 (stereo not drawn) [3p] the “P. aegyptiaca germination(%)” value (P. aegyptiaca seeds) was 18.6% and the IC50 (ShHTL7 [1]; [9]) was 15.6 ± 0.37 µM.

With Cc1cc([N+](=O)[O-])ccc1OCC(=O)N1CCN(CC2CC3C=CC2C3)CC1 (stereo not drawn) [3h] the “P. aegyptiaca germination(%)” value (P. aegyptiaca seeds) was 22.0% and the IC50 (ShHTL7 [1]; [9]) was 10 ± 0.59 µM.

Cc1ccc(OCC(=O)N2CCN(C(=O)C3CC4C=CC3C4)CC2)cc1 (stereo not drawn) [3a] was tested, and the “P. aegyptiaca germination(%)” value (P. aegyptiaca seeds) was 19.4% and the IC50 (ShHTL7 [1]; [9]) was 35.6 ± 3.84 µM.

In the case of Cc1cc(F)ccc1OCC(=O)N1CCN(CC2CC3C=CC2C3)CC1 (stereo not drawn) [3d], the “P. aegyptiaca germination(%)” value (P. aegyptiaca seeds) is reported as 23.1%, the IC50 (ShHTL7 [1]; [9]) is reported as 10.7 ± 2.93 µM and the Kd (ShHTL7 [2]; [10]) is reported as 1.86 µM.

In the case of CC1=CC(OC(=O)N2CCN(C(=O)COc3ccc(Cl)cc3C)CC2)OC1=O (stereo not drawn) [4e], the “P. aegyptiaca germination EC50 values” value (P. aegyptiaca seeds; [3]) is reported as 8.242, the IC50 (ShHTL7 [1]; [5]) is reported as 2.35 µM and the Kd (ShHTL7 [2]; [6]) is reported as 6.33 ± 3.1 µM.

With Cc1cc(Cl)ccc1OCC(=O)N1CCN(CC2CC3C=CC2C3)CC1 (stereo not drawn) [3e] the “P. aegyptiaca germination(%)” value (P. aegyptiaca seeds) was 7.0%, the IC50 (ShHTL7 [1]; [9]) was 8.28 ± 1.12 µM and the Kd (ShHTL7 [2]; [10]) was 0.65 µM.

In the case of O=C(COc1ccc(C(F)(F)F)cc1)N1CCN(CC2CC3C=CC2C3)CC1 (stereo not drawn) [3n], the “P. aegyptiaca germination(%)” value (P. aegyptiaca seeds) is reported as 47.8% and the IC50 (ShHTL7 [1]; [9]) is reported as 12.8 ± 2.97 µM.

For CC1=CC(OC(=O)N2CCN(C(=O)COc3ccc(F)cc3C)CC2)OC1=O (stereo not drawn) [4d], the “P. aegyptiaca germination EC50 values” value (P. aegyptiaca seeds; [3]) was 8.181, the IC50 (ShHTL7 [1]; [5]) was 3.78 µM and the Kd (ShHTL7 [2]; [6]) was 0.82 ± 0.26 µM.

O=C(COc1ccc(Cl)cc1Cl)N1CCN(CC2CC3C=CC2C3)CC1 (stereo not drawn) [3j] was tested, and the “P. aegyptiaca germination(%)” value (P. aegyptiaca seeds) was 54.7% and the IC50 (ShHTL7 [1]; [9]) was 9.22 ± 0.35 µM.
